Assay results from publication PMC5490255, “Minute Impurities Contribute Significantly to Olfactory Receptor Ligand Studies: Tales from Testing the Vibration Theory” (eNeuro, 2017).

How the values were obtained:
Or42b (dOr42b) [1] = biological target: T1, Or42b (dOr42b) (Drosophila melanogaster, UniProt Q9V9I4); test: GC-coupled calcium imaging (GCaMP6m) of Or42b neurons; details: inhibitory (calcium decrease) at own elution time, direct receptor action not separately proven
T1 construct: native receptor in Or42b olfactory sensory neurons of living female flies (Or42b-Gal4 > UAS-GCaMP6m); calcium imaging of antenna or glomerulus DM1; endogenous Orco; with Odorant receptor coreceptor
T1 sequence (Q9V9I4 1-399): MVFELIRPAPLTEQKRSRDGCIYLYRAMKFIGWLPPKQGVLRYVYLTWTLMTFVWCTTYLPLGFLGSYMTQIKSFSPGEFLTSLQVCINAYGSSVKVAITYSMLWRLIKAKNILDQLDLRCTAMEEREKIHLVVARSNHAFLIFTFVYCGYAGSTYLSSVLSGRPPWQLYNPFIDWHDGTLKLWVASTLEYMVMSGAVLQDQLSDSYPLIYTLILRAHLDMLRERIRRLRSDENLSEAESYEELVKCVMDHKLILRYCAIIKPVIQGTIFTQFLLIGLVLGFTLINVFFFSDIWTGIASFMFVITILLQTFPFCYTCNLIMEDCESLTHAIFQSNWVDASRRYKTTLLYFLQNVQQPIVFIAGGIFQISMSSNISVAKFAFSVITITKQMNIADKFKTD
T1 sequence (Q9VNB5 1-486 partner): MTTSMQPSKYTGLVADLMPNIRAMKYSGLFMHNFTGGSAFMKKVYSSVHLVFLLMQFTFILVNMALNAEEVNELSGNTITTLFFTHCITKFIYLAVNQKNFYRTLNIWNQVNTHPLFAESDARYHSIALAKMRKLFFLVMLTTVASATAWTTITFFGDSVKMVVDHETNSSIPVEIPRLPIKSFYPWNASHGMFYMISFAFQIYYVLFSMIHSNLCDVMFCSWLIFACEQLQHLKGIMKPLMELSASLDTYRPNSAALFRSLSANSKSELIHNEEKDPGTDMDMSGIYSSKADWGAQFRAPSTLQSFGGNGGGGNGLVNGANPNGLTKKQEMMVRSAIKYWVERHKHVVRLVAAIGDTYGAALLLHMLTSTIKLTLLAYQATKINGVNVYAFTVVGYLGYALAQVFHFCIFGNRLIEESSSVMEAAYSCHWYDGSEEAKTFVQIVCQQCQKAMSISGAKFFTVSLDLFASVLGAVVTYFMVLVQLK

Or42b (dOr42b) [2] = biological target: T1, Or42b (dOr42b); test: GC-coupled antennal calcium imaging (GCaMP6m) of Or42b neurons, single dose; details: agonist, 10^-2 dilution
[3] = GC-purified eluate of headspace

SMILES | GC-coupled antennal calcium imaging (GCaMP6m) of Or42b neurons, single dose (Or42b (dOr42b) [2]; [3]) | also measured
O=Cc1ccccc1 [benzaldehyde-d5] |  | GC-coupled calcium imaging (GCaMP6m) of Or42b neurons (Or42b (dOr42b) [1]; 10^-2 and 10^-1 dilution, deuterated compound, excitation without GC due to ethyl acetate impurity): response to either benzaldehyde-h or benzaldehyde-d5 was inhibitory at the elution time of benzaldehyde
O=Cc1ccccc1 [benzaldehyde-h] |  | GC-coupled calcium imaging (GCaMP6m) of Or42b neurons (Or42b (dOr42b) [1]; 10^-2 dilution): response to either benzaldehyde-h or benzaldehyde-d5 was inhibitory at the elution time of benzaldehyde
CCOC(=O)C[C@H](C)O [ethyl (S)-(+)-3-hydroxybutyrate] | ethyl propionate, propyl acetate, and ethyl (S)-(+)-3-hydroxybutyrate all elicited responses that decayed slowly | 
CCCC(=O)OCC [ethyl butyrate] |  | GC-coupled antennal calcium imaging (GCaMP6m) of Or42b neurons, single dose (Or42b (dOr42b) [2]; GC-purified, own elution peak (sample also held other active impurities)): unknown, and one corresponding to ethyl butyrate itself
CCOC(=O)CC [ethyl propionate] | ethyl propionate, propyl acetate, and ethyl (S)-(+)-3-hydroxybutyrate all elicited responses that decayed slowly | 
CCCOC(C)=O [propyl acetate] | ethyl propionate, propyl acetate, and ethyl (S)-(+)-3-hydroxybutyrate all elicited responses that decayed slowly | 
